Data set [1] deals with senescent cells. Briefly: SA-b-galactosidase staining of senescent cells. Format: cell-based. The following applies: 30 μM SP-101 versus untreated control, optical microscope. The method, then:
Specifically, SA-b-galactosidase staining was used. Cells that were not treated with anything were used as a control, and those treated with 30 μM of SP-101 were used as an experimental group. SA-gal staining was performed using a kit (Biovision, K320-250) according to the manufacturer's instructions. Senescent cells were identified as blue-stained cells under an optical microscope.

Data set [2] can be described thus: Macromolecular formation of SP-101 by ROS (TEM/SEM). It is filed as physicochemical. The following applies: 1 mM and 10 mM in water, stirred 24 hours. The method, then:
Specifically, 1 mM SP-101 and 10 mM SP-101 were each dissolved in water and stirred for 24 hours. A drop of an aqueous solution of SP-101 was placed on a formvar/carbon-coated copper grid and evaporated under atmospheric conditions. The sample was stained with a 2 wt % uranyl acetate solution, evaporated for 1 minute, and then the excess solution was removed therefrom by using a filter paper.

Data set [3] concerns senescent cells. Briefly: Cytotoxicity of SP-101, MTT cell viability. The following applies: 5 μM to 30 μM SP-101, 24 hours. Format: cell-based. The method, then:
(§1) Specifically, the cell viability of IMR90 and senescent cells against SP-101 was evaluated by identifying the reduction of 3-(4,5-dimethylthiazol-2-yl)-2,5-diphenyltetrazolium bromide (MTT) to insoluble formazan. Cells were seeded at a density of 5×10^3 cells per well in a 96-well plate and cultured overnight, followed by treatment with different concentrations of SP-101 in DMEM medium containing 10% FBS and cultured for 24 hours. Then, the cells were cultured with MTT, and then the crystallized formazan was quantified by measuring the absorbance thereof at 595 nm by using an ELISA plate reader. Results were expressed as percent viability=[(A550 (treated cells)−background value)/(A550 (untreated cells)−background value)]×100.

In data set [4] the test system is choroidal neovascularization. Briefly: Laser-induced CNV model, fluorescein angiography. It is filed as in vivo, mice. The following applies: two weeks after laser, compared to Eylea control group. The source says: Specifically, the mice were anesthetized by intraperitoneal injection of ketamine hydrochloride and xylazine hydrochloride. By using a diode laser with a wavelength of 810 nm, eight photocoagulation spots, each having the size of 75 μm, the intensity of 250 mW, and the time of 50 ms, were made in concentric circles among the main retinal vessels around the optic nerve. The rupture of the Bruck's membrane was confirmed by identifying that cavitation bubbles had been formed in the choroid. Immediately after laser irradiation, the experimental groups treated with 10 μM, 50 μM, and 100 μM of SP-101, and phosphate buffered saline and Eylea, which were used as control groups, were injected into the vitreous cavity. Two weeks after laser irradiation, fluorescein angiography was performed thereon using a confocal scanning laser fundus camera. After fluorescein-dextran was rapidly injected intravenously, images thereof were taken at the beginning (2 min) and late (10 min).

The nature of data set [5]: Self-assembly of SH-KLAKLAKRGD (TEM, size). It is filed as physicochemical. The following applies: dissolved in water (1 mM and 10 mM), stirred 24 hours. Here is the method: SH-KLAKLAKRGD (1 mM and 10 mM) was dissolved in water and stirred for 24 hours. A drop of SH-KLAKLAKRGD aqueous solution was placed on a formvar/carbon coated copper grid and allowed to evaporate at ambient conditions. The sample was stained with 2 wt % uranyl acetate solution and evaporated for 1 minute, and the excess solution was removed with filter paper. The specimen was observed using a JEM-1400 TEM operating at 120 kV.

Data set [6] relates to senescent cells. Briefly: Cytotoxicity of SH-KLAKLAKRGD, MTT cell viability. It is filed as cell-based. The following applies: different concentrations, 24 hours. Here is the method:
as §1, with “SH-KLAKLAKRGD” for “SP-101”, “MTT” for “3-(4,5-dimethylthiazol-2-yl)-2,5-diphenyltetrazolium bromide (MTT)”

SH = thiol (–SH) group at the N-terminus

On to “(3-((3-(3,5-dimercaptobenzamido)propyl)dimethylammonium)propyl)triphenylphosphonium [SP-101]”, for which the “reduction of senescent cells (blue-stained cells)” value in data set [1] was “senescent cells were reduced”. The “macromolecule formation by oxidation” value in data set [2] is listed as “oxidized to form a macromolecule”. Also, the “killing of senescent cells versus normal cells IMR90” value in data set [3] was “more senescent cells were killed than normal cells”. The “volume of choroidal neovascularization” value in data set [4] (10 μM SP-101 injected into the vitreous cavity) and in data set [4] (100 μM SP-101 injected into the vitreous cavity) was “decreased by about twice compared to the Eylea control group” each time.

Take “SH-KLAKLAKRGD: mitochondria-targeting compound prepared by solid phase peptide synthesis; NH2-KLAKLAKRGD reacted with disulfide 4, structure in FIG. 10 ({SH}-KLAKLAKRGD-NH2; also: N-terminal thiol group from reaction with disulfide 4)”: the “size of the polymerized SH-KLAKLAKRGD” value in data set [5] is listed as 350±100 nm. Moreover, in data set [5] (TEM), the “macromolecule formation (TEM image)” value is “showed a macromolecule in which peptides were polymerized”. For the same substance, the “cell viability in senescent cells versus IMR90 normal cell” value in data set [6] is “cell viability in senescent cells was lower than that in IMR90”.

These data come from patent US20220153783A1, “MITOCHONDRIA-TARGETING COMPOUND AND COMPOSITION COMPRISING SAME FOR TREATING OR PREVENTING AGING-RELATED DISEASES” (FUSION BIOTECHNOLOGY CO., LTD., priority 2019, published 2022).
